# Data reported in patent publication US8618082B2, “Lupeol anti-tumor agent and uses thereof” (Wisconsin Alumni Research Foundation, priority 2004, dated 2013).
# How the values were obtained:
# NFκB/p65 = experiment: TPA-induced NFκB/p65 activation and nuclear translocation (western blot); assay type: in vivo, mouse; details: topical Lupeol prior to TPA
# Procedure: FIG. 7. Inhibitory effect of Lupeol on TPA-induced NF-κB activation and its subsequent translocation to nucleus in CD-1 mice. (a) At different times after treatment, the animals were sacrificed, nuclear lysates were prepared, and protein expression was determined. The values above each lane indicate relative density of the band.
# (§1) The animals were shaved on the dorsal side of the skin, divided into four groups and treated topically on the shaved area with either 0.4 ml vehicle (acetone), or TPA (3.2 nmol/0.4 ml acetone/animal, v/v), or Lupeol (1 or 2 mg/0.2 ml acetone/animal, w/v) followed 30 min later with TPA (3.2 nmol/0.2 ml acetone/animal). Animals were sacrificed at different times point i.e. 6, 12, 24 and 48 h post TPA treatment. […]
# Epidermis from the whole skin was separated as described earlier (Katiyar et al., 1999) and was homogenized in ice-cold lysis buffer [50 mM Tris-HCl, 150 mM NaCl, 1 mM EGTA, 1 mM EDTA, 20 mM NaF, 100 mM Na3VO4, 0.5% NP-40, 1% Triton X-100, 1 mM PMSF (pH 7.4)] with freshly added protease inhibitor cocktail, Protease Inhibitor Cocktail Set III (Calbiochem, La Jolla, Calif., USA). […] The protein content in the lysates was measured by DC BioRad assay (BioRad Laboratories, Hercules, Calif.) as per the manufacturer's protocol. […]
# epidermal ODC protein = experiment: TPA-induced epidermal ODC protein expression (western blot); assay type: in vivo, mouse
# Procedure: FIG. 4. Inhibitory effect of Lupeol on TPA-induced epidermal ODC, iNOS and COX-2 protein expression in CD-1 mice: At different times after treatment, the animals were sacrificed, epidermal protein lysate was prepared, and ODC and COX-2 protein expression were determined. Equal loading of protein was confirmed by stripping the immunoblot and reprobing it for β-actin. The immunoblots shown here are representative of three independent experiments with similar results. The values above each lane indicate relative density of the band normalized to β-actin.
# as §1
# Epidermis from the whole skin was separated as described earlier (Katiyar et al., 1999) and was homogenized in ice-cold lysis buffer [50 mM Tris-HCl, 150 mM NaCl, 1 mM EGTA, 1 mM EDTA, 20 mM NaF, 100 mM Na3VO4, 0.5% NP-40, 1% Triton X-100, 1 mM PMSF (pH 7.4)] with freshly added protease inhibitor cocktail, Protease Inhibitor Cocktail Set III (Calbiochem, La Jolla, Calif., USA). […] The protein content in the lysates was measured by DC BioRad assay (BioRad Laboratories, Hercules, Calif.) as per the manufacturer's protocol.
# For western blot analysis, 40 μg of the protein was resolved over 8-12% polyacrylamide gels and transferred to a nitrocellulose membrane. […] This was followed by incubation with anti-mouse or anti-rabbit secondary antibody horse-radish peroxidase (Amersham Life Sciences, Inc., USA) for 1 h and then washed several times and detected by chemiluminescence ECL kit, (Amersham Life Sciences, Inc., USA) and autoradiography using XAR-5 film obtained from Eastman Kodak Co. (Rochester, N.Y., USA). […]
# [1] = system: Fas receptor in LNCaP cells; experiment: Fas-siRNA silenced LNCaP cells: Fas expression and viability; assay type: cell-based, human; details: vs LNCaP cells with Fas receptor expression treated with Lupeol
# Procedure: FIG. 17 depicts effect of Lupeol treatment on the growth of CaP cells transfected with Fas-siRNA and on the expression of Fas receptor in Fas-silenced CaP cells: (A). Cells were treated with specified concentrations of Lupeol alone, anti-Fas mAb or non-sense siRNA (negative control), Fas-siRNA, combination (Lupeol+Fas-siRNA) and combination (anti-Fas mAb+Fas-siRNA). The expression of Fas receptor protein in total cell lysate was determined by western blot analysis. Equal loading was confirmed by stripping immunoblots and reprobing them for β-actin. The immunoblots shown here are representative of three independent experiments with similar results. (B). Cells were treated with specified concentrations of Lupeol alone, anti-Fas mAb or non-sense siRNA (negative control), Fas-siRNA, combination (Lupeol+Fas-siRNA) and combination (anti-Fas mAb+Fas-siRNA). The values represent percent viable cells where vehicle-treated cells were regarded as 100% viable. Data represents mean value of percent viable cells±S.E of three independent experiments.
# To determine whether Lupeol induces apoptosis of LNCaP cells selectively through Fas receptor, we used siRNA technology. siRNA's have the ability to silence […] any specific protein. We designed siRNA against Fas receptor protein and treated LNCaP cell with them.
structure (smiles),measurement,setting,value
"C=C(C)[C@@H]1CC[C@]2(C)CC[C@]3(C)[C@H](CC[C@@H]4[C@@]5(C)CC[C@H](O)C(C)(C)[C@@H]5CC[C@]43C)[C@@H]12 [Lupeol, Lup-20(29)-en-3β-ol]",TPA-induced NFκB/p65 activation and nuclear translocation,NFκB/p65,inhibited
same,epidermal ODC protein expression after Lupeol alone,epidermal ODC protein; Lupeol alone up to 2 mg/animal,without any effect on enzyme level
same,inhibition of TPA-caused induction of epidermal ODC protein expression (densitometry),"epidermal ODC protein; Lupeol-pretreated animals, 1 or 2 mg, all time points",50-70%
same,cell death of Fas-silenced LNCaP cells,[1],reduced cell death
